Test [1] deals with HSP90 client protein Her2 in SKBR-3 cells. The experiment in a line: Her-2 degradation assay (Her-2 ELISA) in SKBr-3 cells. The format is cell-based. The following applies: Homo sapiens. How it is done: (§1) Most of the compounds synthesized were evaluated for their ability to induce degradation of the HSP90 client protein Her2 in SKBR-3 cells. Selected compounds were evaluated in a fluorescence polarization (FP) assay for their affinity to HSP90.
SKBr-3 cells grown in McCoy's 5a Medium supplemented with 10% fetal bovine serum (FBS) were plated into 12-well plates at 50% confluency. Increasing concentrations of inhibitors were added 24 hours later (cells are 65-70% confluent) and incubated overnight for 18 hours. The wells were washed with 2 ml of phosphate buffered saline (PBS), and 50 ul of trypsin was added to each well. After trypsinization was complete, 150 ul of FBS was added to each well. Then 200 ul of cells were transferred to 96-well plates and plates were centrifuged at 1200 rpm for 2 minutes using a tabletop centrifuge. The cells were washed once with 250 ul PBS before being lysed with 100 ul of 50 mM Tris (pH 7.4), 0.1% NP-40 lysis buffer. Protein concentrations of clarified lysates were determined using the BCA Assay (Calbiochem) according to the manufacturer's instructions. 2 ug of each lysate was analyzed in the human sp 185 Her-2 ELISA (Bender Medsystems) according to the manufacturer's instructions. ELISA plates were read at 450 nm using a multiwell plate spectrophotometer. Background was determined by measuring the Abs 450 nm of wells with no lysate added. The background value was subtracted from all values. Absorbance 450 nm values for each inhibitor were plotted against the log 10 inhibitor concentration, and IC50 values were calculated using a nonlinear least-square curve fitting program in Prism 5.

The next test deals with HSP90. The test is described as follows: Fluorescence polarization (FP) assay for affinity to HSP90. The format is binding. Particulars: Table 2; means of three independent experiments. How it is done:
as §1

The test system of another test is MCF-7. The experiment in a line: MTS assay (cytotoxicity), growth inhibition of MCF-7. The class given is cell-based. Particulars: Homo sapiens, MCF7, 120 h, Table 5, series III, 5 days, read-out: Growth Inhibition (IC50) MCF-7. As to the method:
(§2) Cells were seeded in 96-well plates at 2000 cells/well in a final culture volume of 100 ul for 24 hours before the addition of 25 ul of increasing concentrations of inhibitors that was incubated for 5 days. Viable cell number was determined using the CellTiter 96 AQueous One Solution Cell Proliferation Assay (Promega). Plates were read at 490 nm absorbance 2-4 hours after addition of the MTS reagent using a multiwell plate spectrophotometer. Background was determined by measuring the Abs 490 nm of cell culture medium and MTS in the absence of cells. The background value was subtracted from all values. Absorbance 490 nm values for each inhibitor were plotted against the log 10 inhibitor concentration, and IC50 values were calculated using a nonlinear least-square curve fitting program in Prism 5.

Another test concerns SKBR-3. The test is described as follows: MTS assay (cytotoxicity), growth inhibition of SKBR-3. The format is cell-based. Particulars: Homo sapiens, SK-BR-3, 120 h, Table 5, series III, 5 days, read-out: Growth Inhibition (IC50) SKBR-3. As to the method: as §2
For the next test, the system named is BT474. The experiment in a line: MTS assay (cytotoxicity), growth inhibition of BT474. The format is cell-based. Particulars: Homo sapiens, BT-474, 120 h, Table 5, series III, 5 days, read-out: Growth Inhibition (IC50) BT474. How it is done: as §2
A further test has as its system HT29. The test is described as follows: MTS assay (cytotoxicity), growth inhibition of HT29. The class given is cell-based. Particulars: Homo sapiens, HT-29, 120 h, Table 5, series III, 5 days, read-out: Growth Inhibition (IC50) HT29. How it is done: as §2
Setting [2] is: SK-BR-3, Table 2, 18 hours, means of three independent experiments.
[3] abbreviates: SK-BR-3, Table 5, series III, 18 hours.

pIC50: −log10 of the molar value.

Regarding `COc1c(C)cnc(CN2c3nc(N)nc(Cl)c3NC(=O)[C@@H]2CCO)c1C` [Example I-25], the figures for the pIC50 (in test [1] (setting [2]); in the test on HSP90) were 6.55 and 6.19, respectively.

As for `COc1c(C)cnc(CN2c3nc(N)nc(Cl)c3N(C(C)C)C(=O)[C@@H]2C(C)C)c1C` [Example I-32], the pIC50 in test [1] (setting [2]) is 7.22; with HSP90, 7.10.

Turning to `COc1c(C)cnc(CN2C(=O)/C(=C\c3cc(C(=O)NCCNC(C)C)c[nH]3)c3c(Cl)nc(N)nc32)c1C` [III-21, (Z)-5-((2-Amino-4-chloro-7-((4-methoxy-3,5-dimethylpyridin-2-yl)methyl)-6-oxo-6,7-dihydro-5H-pyrrolo[2,3-d]pyrimidin-5-ylidene)methyl)-N-(2-(isopropylamino)ethyl)-1H-pyrrole-3-carboxamide], the pIC50 with MCF-7 was 6.82; in the test on SKBR-3, 8.40; with BT474, 8.00; in the test with HT29, 7.22; in test [1] (setting [3]) it was 7.22.

Consider `COc1c(C)cnc(CN2C(=O)/C(=C\c3cc(C(=O)NCC(O)CO)c[nH]3)c3c(Cl)nc(N)nc32)c1C` (stereo not drawn) [III-22, (Z)-5-((2-Amino-4-chloro-7-((4-methoxy-3,5-dimethylpyridin-2-yl)methyl)-6-oxo-6,7-dihydro-5H-pyrrolo[2,3-d]pyrimidin-5-ylidene)methyl)-N-(2,3-dihydroxypropyl)-1H-pyrrole-3-carboxamide], for which the pIC50 with MCF-7 is 6.40; in the test on SKBR-3 it was 7.10; with BT474 it was 6.96; with HT29 it was 6.44; in test [1] (setting [3]), 7.10.

For `COc1c(C)cnc(CN2C(=O)/C(=C\c3cc(C(=O)NCCN4CCCC4)c[nH]3)c3c(Cl)nc(N)nc32)c1C` [III-26, (Z)-5-((2-Amino-4-chloro-7-((4-methoxy-3,5-dimethylpyridin-2-yl)methyl)-6-oxo-6,7-dihydro-5H-pyrrolo[2,3-d]pyrimidin-5-ylidene)methyl)-N-(2-(pyrrolidin-1-yl)ethyl)-1H-pyrrole-3-carboxamide], the pIC50 with MCF-7 is 7.52; with SKBR-3 it was above 9.70; in the test with BT474, 9.00; with HT29, 9.22; in test [1] (setting [3]), 8.30.

As for `COc1c(C)cnc(CN2C(=O)/C(=C\c3cc(C(=O)N(CCO)CCO)c[nH]3)c3c(Cl)nc(N)nc32)c1C` [III-27, (Z)-5-((2-Amino-4-chloro-7-((4-methoxy-3,5-dimethylpyridin-2-yl)methyl)-6-oxo-6,7-dihydro-5H-pyrrolo[2,3-d]pyrimidin-5-ylidene)methyl)-N,N-bis(2-hydroxyethyl)-1H-pyrrole-3-carboxamide], the pIC50 is 6.48 in the test with MCF-7; 7.30 in the test on SKBR-3; 7.10 in the test with BT474; 6.89 with HT29; 6.89 in test [1] (setting [3]).

Consider `COc1c(C)cnc(CN2C(=O)/C(=C\c3cc(C(=O)NCCCN4CCCC4)c[nH]3)c3c(Cl)nc(N)nc32)c1C` [III-28, (Z)-5-((2-Amino-4-chloro-7-((4-methoxy-3,5-dimethylpyridin-2-yl)methyl)-6-oxo-6,7-dihydro-5H-pyrrolo[2,3-d]pyrimidin-5-ylidene)methyl)-N-(3-(pyrrolidin-1-yl)propyl)-1H-pyrrole-3-carboxamide], for which the pIC50 was 6.05 in the test on MCF-7; 7.40 with SKBR-3; 7.70 in the test with BT474; 7.30 with HT29; 6.96 in test [1] (setting [3]).

Take `COc1c(C)cnc(CN2C(=O)/C(=C\c3cc(C(=O)NCCN(CCO)CCO)c[nH]3)c3c(Cl)nc(N)nc32)c1C` [III-30, (Z)-5-((2-Amino-4-chloro-7-((4-methoxy-3,5-dimethylpyridin-2-yl)methyl)-6-oxo-6,7-dihydro-5H-pyrrolo[2,3-d]pyrimidin-5-ylidene)methyl)-N-(2-(bis(2-hydroxyethyl)amino)ethyl)-1H-pyrrole-3-carboxamide]: the pIC50 in the test with MCF-7 was 6.17; in the test with SKBR-3 it was 7.70; in the test on BT474 it was 7.15; in the test on HT29, 6.68; in test [1] (setting [3]) it was 7.30.

With `COc1c(C)cnc(CN2C(=O)/C(=C\c3cc(C(=O)NCCN4CCC(O)CC4)c[nH]3)c3c(Cl)nc(N)nc32)c1C` [III-33, (Z)-5-((2-Amino-4-chloro-7-((4-methoxy-3,5-dimethylpyridin-2-yl)methyl)-6-oxo-6,7-dihydro-5H-pyrrolo[2,3-d]pyrimidin-5-ylidene)methyl)-N-(2-(4-hydroxypiperidin-1-yl)ethyl)-1H-pyrrole-3-carboxamide], the pIC50 with MCF-7 was 6.96; in the test with SKBR-3 it was 9.22; in the test with BT474, 8.52; in the test on HT29, 7.70; in test [1] (setting [3]), 7.40.

With `COc1c(C)cnc(CN2C(=O)/C(=C\c3cc(C(=O)NCCCN4CCOCC4)c[nH]3)c3c(Cl)nc(N)nc32)c1C` [III-34, (Z)-5-((2-Amino-4-chloro-7-((4-methoxy-3,5-dimethylpyridin-2-yl)methyl)-6-oxo-6,7-dihydro-5H-pyrrolo[2,3-d]pyrimidin-5-ylidene)methyl)-N-(3-morpholinopropyl)-1H-pyrrole-3-carboxamide], the negative logarithm of the IC50 (pIC50) with MCF-7 was 6.77; in the test with SKBR-3, 8.00; in the test on BT474, 7.40; in the test with HT29, 7.70; in test [1] (setting [3]), 7.70.

With `COc1c(C)cnc(CN2C(=O)/C(=C\c3cc(C(C)(C)C)n[nH]3)c3c(Cl)nc(N)nc32)c1C` [III-52, (Z)-2-Amino-5-((3-tert-butyl-1H-pyrazol-5-yl)methylene)-4-chloro-7-((4-methoxy-3,5-dimethylpyridin-2-yl)methyl)-5H-pyrrolo[2,3-d]pyrimidin-6(7H)-one], the pIC50 in the test on MCF-7 is 6.72; in the test on SKBR-3 it was 6.85; in the test with BT474, 6.39; in the test with HT29, 6.62; in test [1] (setting [3]), 7.22.

As to `CCN(CC)CCNC(=O)c1c[nH]c(/C=C2\C(=O)N(Cc3cc(C)n(C)n3)c3nc(N)nc(Cl)c32)c1` [III-59, (Z)-5-((2-Amino-4-chloro-7-((1,5-dimethyl-1H-pyrazol-3-yl)methyl)-6-oxo-6,7-dihydro-5H-pyrrolo[2,3-d]pyrimidin-5-ylidene)methyl)-N-(2-(diethylamino)ethyl)-1H-pyrrole-3-carboxamide], the pIC50 in the test on MCF-7 is 5.77; in the test on SKBR-3 it was 7.22; in the test with BT474, 6.80; in the test with HT29 it was 6.49; in test [1] (setting [3]), 7.00.

For `COc1c(C)cnc(CN2C(=O)/C(=C\c3nc(NC(=O)C4CCOCC4)c[nH]3)c3c(Cl)nc(N)nc32)c1C` [III-75, (Z)-N-(2-((2-Amino-4-chloro-7-((4-methoxy-3,5-dimethylpyridin-2-yl)methyl)-6-oxo-6,7-dihydro-5H-pyrrolo[2,3-d]pyrimidin-5-ylidene)methyl)-1H-imidazol-4-yl)tetrahydro-2H-pyran-4-carboxamide], the pIC50 was 6.80 in the test with MCF-7; 8.15 in the test with SKBR-3; 7.22 in the test on BT474; 7.30 in the test on HT29; 7.05 in test [1] (setting [3]).

Regarding `COc1c(C)cnc(CN2C(=O)/C(=C\c3cc(C(=O)CN4CCC(C(F)(F)F)CC4)c[nH]3)c3c(Cl)nc(N)nc32)c1C` [III-94], the pIC50 is 6.41 in the test with MCF-7; 7.05 in the test on SKBR-3; 6.10 with BT474; 6.46 in the test on HT29; 7.10 in test [1] (setting [3]).

Turning to `CCN(CC)CCNC(=O)c1c(C)[nH]c(/C=C2\C(=O)N(Cc3ncc(C)c(OC)c3C)c3nc(N)nc(Cl)c32)c1C` [III-102, (Z)-5-((2-Amino-4-chloro-7-((4-methoxy-3,5-dimethylpyridin-2-yl)methyl)-6-oxo-6,7-dihydro-5H-pyrrolo[2,3-d]pyrimidin-5-ylidene)methyl)-N-(2-(diethylamino)ethyl)-2,4-dimethyl-1H-pyrrole-3-carboxamide], the pIC50 in the test with MCF-7 was 4.67; with SKBR-3, 8.00; in the test with BT474 it was 7.15; in the test on HT29, 7.52; in test [1] (setting [3]) it was 7.40.

The values are drawn from US20110124634A1, “BIOACTIVE COMPOUNDS FOR TREATMENT OF CANCER AND NEURODEGENERATIVE DISEASES” (PONIARD PHARMACEUTICALS, INC., priority 2008, published 2011).
